Source: patent publication US9119857B2, “Small molecule activators of HsIV protease for development of novel antimicrobials” (priority 2013, dated 2015)

Molecular target: T1, E. coli HslV peptidase (Escherichia coli, UniProt P0A7B8)
T1 construct: His tag (inferred from Ni-chelating purification and the pET20B+ vector); made in house; host or cells: E. coli BL21 (DE3), pET20B+ vector
Test: biochemical
Settings: recombinant E. coli HslV; substrate Z-Gly-Gly-Leu-AMC; in the absence of HslU; ED50 = concentration giving half maximal reaction velocity, from Vi/Vo plots; read-out: E. coli HslV activation (ED50 in μM)
Experimental: ED50 values were calculated from the plots of Vi/Vo versus compound concentration in which Vi and Vo were the velocities in the presence and absence of the compound^20.
The HslV activation assays were carried out with recombinant E. coli HslV and HslU. Recombinant HslV and HslU were expressed in E. coli BL21 (DE3) cells containing pET20B+ vector. Purification of both proteins was carried out using Ni-chelating and ion-exchange chromatography as reported elsewhere^4.
Plots of HslV peptidase activity as a function of compound concentrations were constructed (FIG. 4).

T1 sequence (P0A7B8 2-176): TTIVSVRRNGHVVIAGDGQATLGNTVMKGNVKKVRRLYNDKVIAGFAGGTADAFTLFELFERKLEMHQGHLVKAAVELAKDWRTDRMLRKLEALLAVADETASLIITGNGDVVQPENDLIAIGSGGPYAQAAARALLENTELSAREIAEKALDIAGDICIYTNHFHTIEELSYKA

Compound | EC50
O=c1c2ccccc2nc(-c2ccc([N+](=O)[O-])cc2)n1/N=C/c1c(O)ccc2ccccc12 [Compound 1, 3-[(E)-[(2-hydroxynaphthalen-1-yl)methylidene]amino]-2-(4-nitrophenyl)-3,4-dihydroquinazolin-4-one] | 0.9 ± 0.25 µM
O=C(N/N=C/c1cc(=O)c2ccccc2o1)c1ccccc1 [Compound 2, N″-[(1E)-(4-oxo-4H-chromen-2-yl)methylidene]benzohydrazide] | 1.3 ± 0.4 µM
